Measured values from patent US5674979A, “Agent for inhibiting symmetrical proteins, in particular enzymes” (priority 1989, dated 1997).
Read-outs that look alike come from different tables or passages of the source. Residues, ends and D or L forms follow the SMILES beside them. *: point of attachment. ClAc = O=C(CCl)*

Key:
HIV-1 [1] = system: HIV-1
Description: (§1) Infectivity tests were carried out as follows: an HIV-1 suspension containing 10^2 infectious units was absorbed on to 5×10^6 H9 cells in a volume of 1 ml for 2 hours at 4° C. After this time, 9 ml of tissue culture medium with the required inhibitor concentration was added. The medium was exchanged with fresh medium plus inhibitor daily. Two control cultures were also prepared, one without inhibitor to determine the normal virus replication rate, the other containing inhibitor but no virus, to determine whether the substances were cytotoxic for H9 cells. […] The amount of virus antigen produced by the infected cells was measured daily using Elisa for eight days, indicating the amount of HIV-1 antigen in the tissue culture medium. After this, the cells were pelleted, washed in medium without inhibitor, and further incubated in inhibitor-less medium. The antigen production was measured on days 9 and 12 (ie 1 and 3 days after removal of the inhibitor). Virus production was also measured on days 7, 8, 9, and 12 by determining the amount of reverse transcriptase in the supernatant of the cell medium.

H9 cells = assay: Cytotoxicity for H9 cells, trypan blue colouration; format: cell-based; conditions: culture with inhibitor but no virus, 0.1 μM to 1000 μM
Description: as §1

HIV-1 [2] = conditions: H9 cells
Description: Compounds (a), (b), (c), (d) were tested in the molarity range from 0.1 μM to 1000 μM. Infectivity tests were carried out as follows: an HIV-1 suspension containing 10^2 infectious units was absorbed on to 5×10^6 H9 cells in a volume of 1 ml for 2 hours at 4° C. After this time, 9 ml of tissue culture medium with the required inhibitor concentration was added. The medium was exchanged with fresh medium plus inhibitor daily. Two control cultures were also prepared, one without inhibitor to determine the normal virus replication rate, the other containing inhibitor but no virus, to determine whether the substances were cytotoxic for H9 cells. […] The amount of virus antigen produced by the infected cells was measured daily using Elisa for eight days, indicating the amount of HIV-1 antigen in the tissue culture medium. After this, the cells were pelleted, washed in medium without inhibitor, and further incubated in inhibitor-less medium. The antigen production was measured on days 9 and 12 (ie 1 and […] after removal of the inhibitor). Virus production was also measured on days 7, 8, 9, and 12 by determining the amount of reverse transcriptase in the supernatant of the cell medium.

[3] = 0,1 μM, day 9 post infection, no inhibitor (after removal)
[4] = 0,1 μM, day 12 post infection, no inhibitor (after removal)
[5] = 1 μM, day 9 post infection, no inhibitor (after removal)
[6] = 1 μM, day 12 post infection, no inhibitor (after removal)
[7] = 10 μM, day 9 post infection, no inhibitor (after removal)
[8] = 10 μM, day 12 post infection, no inhibitor (after removal)
[9] = 100 μM, day 9 post infection, no inhibitor (after removal)
[10] = 100 μM, day 12 post infection, no inhibitor (after removal)
[11] = 1000 μM, day 9 post infection, no inhibitor (after removal)
[12] = 1000 μM, day 12 post infection, no inhibitor (after removal)

CC[C@H](C)[C@H](NC(=O)[C@@H]1CCCN1C(=O)[C@H](Cc1ccccc1)NC(=O)[C@H](C)NC(=O)CNC(=O)CCl)C(=O)N[C@@H](C)C(=O)O [C, Cl--CH2 --CO-Gly-Ala-Phe-Pro-Ile-Ala-OH] (ClAc-GAFPIA-OH)
Reverse Transkriptase Determination (HIV-1 [1]; 0,1 μM, day 7 post infection): 5561 epm/ml
Reverse Transkriptase Determination (HIV-1 [1]; 0,1 μM, day 8 post infection): 2314 epm/ml
Reverse Transkriptase Determination (HIV-1 [1]; [3]): 7477 epm/ml
Reverse Transkriptase Determination (HIV-1 [1]; [4]): 113340 epm/ml
Reverse Transkriptase Determination (HIV-1 [1]; 1 μM, day 7 post infection): 4575 epm/ml
Reverse Transkriptase Determination (HIV-1 [1]; 1 μM, day 8 post infection): 3198 epm/ml
Reverse Transkriptase Determination (HIV-1 [1]; [5]): 4186 epm/ml
Reverse Transkriptase Determination (HIV-1 [1]; [6]): 164240 epm/ml
Reverse Transkriptase Determination (HIV-1 [1]; 10 μM, day 7 post infection): 5358 epm/ml
Reverse Transkriptase Determination (HIV-1 [1]; 10 μM, day 8 post infection): 4398 epm/ml
Reverse Transkriptase Determination (HIV-1 [1]; [7]): 8823 epm/ml
Reverse Transkriptase Determination (HIV-1 [1]; [8]): 158800 epm/ml
Reverse Transkriptase Determination (HIV-1 [1]; 100 μM, day 7 post infection): 3838 epm/ml
Reverse Transkriptase Determination (HIV-1 [1]; 100 μM, day 8 post infection): 6370 epm/ml
Reverse Transkriptase Determination (HIV-1 [1]; [9]): 8860 epm/ml
Reverse Transkriptase Determination (HIV-1 [1]; [10]): 96780 epm/ml
Reverse Transkriptase Determination (HIV-1 [1]; 1000 μM, day 7 post infection): 7646 epm/ml
Reverse Transkriptase Determination (HIV-1 [1]; 1000 μM, day 8 post infection): 4308 epm/ml
Reverse Transkriptase Determination (HIV-1 [1]; [11]): 5343 epm/ml
Reverse Transkriptase Determination (HIV-1 [1]; [12]): 107640 epm/ml
cytotoxic effect for H9 cells, colouration with trypan blue (H9 cells): no cytotoxic effect
HIV-1 antigen production as measured in antigen capture ELISA (HIV-1 [2]; 0,1 μM, day 1 post infection): 0,062 o. D.
HIV-1 antigen production as measured in antigen capture ELISA (HIV-1 [2]; 0,1 μM, day 2 post infection): 0,069 o. D.
HIV-1 antigen production as measured in antigen capture ELISA (HIV-1 [2]; 0,1 μM, day 3 post infection): 0,055 o. D.
HIV-1 antigen production as measured in antigen capture ELISA (HIV-1 [2]; 0,1 μM, day 4 post infection): 0,052 o. D.
HIV-1 antigen production as measured in antigen capture ELISA (HIV-1 [2]; 0,1 μM, day 5 post infection): 0,054 o. D.
HIV-1 antigen production as measured in antigen capture ELISA (HIV-1 [2]; 0,1 μM, day 6 post infection): 0,105 o. D.
HIV-1 antigen production as measured in antigen capture ELISA (HIV-1 [2]; 0,1 μM, day 7 post infection): 0,276 o. D.
HIV-1 antigen production as measured in antigen capture ELISA (HIV-1 [2]; 0,1 μM, day 8 post infection): 0,336 o. D.
HIV-1 antigen production as measured in antigen capture ELISA (HIV-1 [2]; [3]): 0,588 o. D.
HIV-1 antigen production as measured in antigen capture ELISA (HIV-1 [2]; [4]): 1,010 o. D.
HIV-1 antigen production as measured in antigen capture ELISA (HIV-1 [2]; 1 μM, day 1 post infection): 0,061 o. D.
HIV-1 antigen production as measured in antigen capture ELISA (HIV-1 [2]; 1 μM, day 2 post infection): 0,054 o. D.
HIV-1 antigen production as measured in antigen capture ELISA (HIV-1 [2]; 1 μM, day 3 post infection): 0,060 o. D.
HIV-1 antigen production as measured in antigen capture ELISA (HIV-1 [2]; 1 μM, day 4 post infection): 0,050 o. D.
HIV-1 antigen production as measured in antigen capture ELISA (HIV-1 [2]; 1 μM, day 5 post infection): 0,051 o. D.
HIV-1 antigen production as measured in antigen capture ELISA (HIV-1 [2]; 1 μM, day 6 post infection): 0,133 o. D.
HIV-1 antigen production as measured in antigen capture ELISA (HIV-1 [2]; 1 μM, day 7 post infection): 0,267 o. D.
HIV-1 antigen production as measured in antigen capture ELISA (HIV-1 [2]; 1 μM, day 8 post infection): 0,239 o. D.
HIV-1 antigen production as measured in antigen capture ELISA (HIV-1 [2]; [5]): 0,808 o. D.
HIV-1 antigen production as measured in antigen capture ELISA (HIV-1 [2]; [6]): 1,042 o. D.
HIV-1 antigen production as measured in antigen capture ELISA (HIV-1 [2]; 10 μM, day 1 post infection): 0,069 o. D.
HIV-1 antigen production as measured in antigen capture ELISA (HIV-1 [2]; 10 μM, day 2 post infection): 0,048 o. D.
HIV-1 antigen production as measured in antigen capture ELISA (HIV-1 [2]; 10 μM, day 3 post infection): 0,066 o. D.
HIV-1 antigen production as measured in antigen capture ELISA (HIV-1 [2]; 10 μM, day 4 post infection): 0,064 o. D.
HIV-1 antigen production as measured in antigen capture ELISA (HIV-1 [2]; 10 μM, day 5 post infection): 0,049 o. D.
HIV-1 antigen production as measured in antigen capture ELISA (HIV-1 [2]; 10 μM, day 6 post infection): 0,099 o. D.
HIV-1 antigen production as measured in antigen capture ELISA (HIV-1 [2]; 10 μM, day 7 post infection): 0,228 o. D.
HIV-1 antigen production as measured in antigen capture ELISA (HIV-1 [2]; 10 μM, day 8 post infection): 0,292 o. D.
HIV-1 antigen production as measured in antigen capture ELISA (HIV-1 [2]; [7]): 0,643 o. D.
HIV-1 antigen production as measured in antigen capture ELISA (HIV-1 [2]; [8]): 1,040 o. D.
HIV-1 antigen production as measured in antigen capture ELISA (HIV-1 [2]; 100 μM, day 1 post infection): 0,064 o. D.
HIV-1 antigen production as measured in antigen capture ELISA (HIV-1 [2]; 100 μM, day 2 post infection): 0,056 o. D.
HIV-1 antigen production as measured in antigen capture ELISA (HIV-1 [2]; 100 μM, day 3 post infection): 0,062 o. D.
HIV-1 antigen production as measured in antigen capture ELISA (HIV-1 [2]; 100 μM, day 4 post infection): 0,053 o. D.
HIV-1 antigen production as measured in antigen capture ELISA (HIV-1 [2]; 100 μM, day 5 post infection): 0,061 o. D.
HIV-1 antigen production as measured in antigen capture ELISA (HIV-1 [2]; 100 μM, day 6 post infection): 0,100 o. D.
HIV-1 antigen production as measured in antigen capture ELISA (HIV-1 [2]; 100 μM, day 7 post infection): 0,265 o. D.
HIV-1 antigen production as measured in antigen capture ELISA (HIV-1 [2]; 100 μM, day 8 post infection): 0,296 o. D.
HIV-1 antigen production as measured in antigen capture ELISA (HIV-1 [2]; [9]): 0,787 o. D.
HIV-1 antigen production as measured in antigen capture ELISA (HIV-1 [2]; [10]): 0,940 o. D.
HIV-1 antigen production as measured in antigen capture ELISA (HIV-1 [2]; 1000 μM, day 1 post infection): 0,071 o. D.
HIV-1 antigen production as measured in antigen capture ELISA (HIV-1 [2]; 1000 μM, day 2 post infection): 0,053 o. D.
HIV-1 antigen production as measured in antigen capture ELISA (HIV-1 [2]; 1000 μM, day 3 post infection): 0,061 o. D.
HIV-1 antigen production as measured in antigen capture ELISA (HIV-1 [2]; 1000 μM, day 4 post infection): 0,057 o. D.
HIV-1 antigen production as measured in antigen capture ELISA (HIV-1 [2]; 1000 μM, day 5 post infection): 0,123 o. D.
HIV-1 antigen production as measured in antigen capture ELISA (HIV-1 [2]; 1000 μM, day 6 post infection): 0,096 o. D.
HIV-1 antigen production as measured in antigen capture ELISA (HIV-1 [2]; 1000 μM, day 7 post infection): 0,415 o. D.
HIV-1 antigen production as measured in antigen capture ELISA (HIV-1 [2]; 1000 μM, day 8 post infection): 0,778 o. D.
HIV-1 antigen production as measured in antigen capture ELISA (HIV-1 [2]; [11]): 1,019 o. D.
HIV-1 antigen production as measured in antigen capture ELISA (HIV-1 [2]; [12]): 1,000 o. D.
